30 compounds from patent US8450317B2, “CXCR3 receptor antagonists” (Boehringer Ingelheim International GmbH, priority 2009, dated 2013) can be followed below.

Usually IC50 stands for the midpoint of a concentration-inhibition curve.

CXCR3, sequence (A0A2K5UV19 entry or part of it): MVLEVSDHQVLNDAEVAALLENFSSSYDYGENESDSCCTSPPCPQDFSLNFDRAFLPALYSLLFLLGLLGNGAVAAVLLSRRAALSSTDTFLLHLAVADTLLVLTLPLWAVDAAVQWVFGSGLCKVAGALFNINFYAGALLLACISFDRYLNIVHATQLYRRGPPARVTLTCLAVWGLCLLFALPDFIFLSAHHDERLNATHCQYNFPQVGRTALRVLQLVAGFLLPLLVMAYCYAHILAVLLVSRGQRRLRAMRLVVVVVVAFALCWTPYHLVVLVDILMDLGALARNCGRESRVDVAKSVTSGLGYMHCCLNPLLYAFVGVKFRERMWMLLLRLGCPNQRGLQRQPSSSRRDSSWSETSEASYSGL

This assay concerns the target CXCR3 (Macaca fascicularis, UniProt A0A2K5UV19). Briefly: functional cellular assay measuring calcium flux in CXCR3 transfected cells (block of CXCR3/IP-10 interaction). Conditions: IP-10 induced intracellular calcium flux; Cyno-CHO cells stably expressing recombinant CXCR3 and G-alpha-16; IP-10 at EC80; read-out: IC50. The assay is classed as cell-based, Cyno. Put shortly:
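Inhibition of IP-10-induced calcium flux at 10 microM final compound, 15 min room-temperature preincubation, with IP-10 at EC80. Cells: CHO stably transfected with cynomolgus CXCR3 plus G-alpha-16, dye-loaded (Ca-4, 2 mM probenecid, HBSS/HEPES pH 7.4) 1 h at 37° C.; fluorescence ex 480/em 540 nm.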
(A change in cytosolic calcium serves as a functional read-out for many receptors and channels.)
On to `Cc1cc(C)n(CC(=O)N2CCN(c3ccccc3-c3cnc(C#N)nc3)CC2)n1` [5-(2-{4-[2-(3,5-Dimethyl-pyrazol-1-yl)-acetyl]-piperazin-1-yl}-phenyl)-pyrimidine-2-carbonitrile], for which the IC50 was determined as 43 nM.
On to `CC1CN(c2ccc(C(F)(F)F)cc2-c2cnc(N3CCC(O)CC3)nc2)CCN1C(=O)Cn1c(=O)[nH]c2ccccc21` (stereo not drawn) [1-[2-(4-{2-[2-(4-hydroxypiperidin-1-yl)pyrimidin-5-yl]-4-(trifluoromethyl)phenyl}-2-methylpiperazin-1-yl)-2-oxoethyl]-1,3-dihydro-2H-benzimidazol-2-one], for which the IC50 was determined as 9 nM.
Next, `COc1cc(NC(=O)c2cc(F)ccc2N2CCN(C(=O)CN(C)C(=O)c3ncoc3C)[C@H](C)C2)ccn1` [N-{2-[(2R)-4-{4-fluoro-2-[(2-methoxypyridin-4-yl)carbamoyl]phenyl}-2-methylpiperazin-1-yl]-2-oxoethyl}-N,5-dimethyl-1,3-oxazole-4-carboxamide]: 12 nM.
Next, `COc1ccc(-c2ccccc2N2CCN(C(=O)Cn3ccc4cccnc43)CC2)cn1` [1-{4-[2-(6-Methoxy-pyridin-3-yl)-phenyl]-piperazin-1-yl}-2-pyrrolo[2,3-b]pyridin-1-yl-ethanone]: 34 nM; `CN1CCN(c2ncc(-c3cc(F)ccc3N3CCN(C(=O)CN4Cc5ccccc5C4=O)CC3)cn2)CC1` [2-[2-(4-{4-fluoro-2-[2-(4-methylpiperazin-1-yl)pyrimidin-5-yl]phenyl}piperazin-1-yl)-2-oxoethyl]-2,3-dihydro-1H-isoindol-1-one]: 26 nM.
Next, `Cc1cc(C)n(CC(=O)N2CCN(c3ccc(F)cc3-c3cnc(S(C)(=O)=O)nc3)CC2)n1` [2-(3,5-dimethyl-1H-pyrazol-1-yl)-1-(4-{4-fluoro-2-[2-(methylsulfonyl)pyrimidin-5-yl]phenyl}piperazin-1-yl)ethanone]: 278 nM; `COc1cc(NC(=O)c2cc(F)ccc2N2CCN(C(=O)Cn3c(=O)[nH]c4ccccc43)[C@@H](C)C2)ccn1` [5-fluoro-N-(2-methoxypyridin-4-yl)-2-{(3S)-3-methyl-4-[(2-oxo-2,3-dihydro-1H-benzimidazol-1-yl)acetyl]piperazin-1-yl}benzamide]: 9 nM; `COc1ncc(-c2ccccc2N2CCN(C(=O)Cn3ccc4cccnc43)CC2)cn1` [1-{4-[2-(2-Methoxy-pyrimidin-5-yl)-phenyl]-piperazin-1-yl}-2-pyrrolo[2,3-b]pyridin-1-yl-ethanone]: 6 nM.
Turning to `C[C@H]1CN(c2ccc(F)cc2C(=O)Nc2nc3c(s2)CN(C)CC3)CCN1C(=O)CN1CCCCC1=O` [5-fluoro-2-{(3S)-3-methyl-4-[(2-oxopiperidin-1-yl)acetyl]piperazin-1-yl}-N-(5-methyl-4,5,6,7-tetrahydro[1,3]thiazolo[5,4-c]pyridin-2-yl)benzamide], the IC50 was determined as 17 nM.
As for `COc1cc(NC(=O)c2cc(F)ccc2N2CCN(C(=O)Cn3cnc4cccnc43)[C@@H](C)C2)ccn1` [5-fluoro-2-[(3S)-4-(3H-imidazo[4,5-b]pyridin-3-ylacetyl)-3-methylpiperazin-1-yl]-N-(2-methoxypyridin-4-yl)benzamide], the figure is 11 nM.
As for `COc1cc(NC(=O)c2cc(F)ccc2N2CCN(C(=O)Cn3ccc4ccncc43)[C@@H](C)C2)ccn1` [5-fluoro-N-(2-methoxypyridin-4-yl)-2-[(3S)-3-methyl-4-(1H-pyrrolo[2,3-c]pyridin-1-ylacetyl)piperazin-1-yl]benzamide], the figure is 6 nM; as for `C[C@H]1CN(c2ccc(F)cc2C(=O)Nc2nc3c(s2)CN(C)CC3)CCN1C(=O)Cn1c(=O)[nH]c2ccccc21` [5-fluoro-2-{(3S)-3-methyl-4-[(2-oxo-2,3-dihydro-1H-benzimidazol-1-yl)acetyl]piperazin-1-yl}-N-(5-methyl-4,5,6,7-tetrahydro[1,3]thiazolo[5,4-c]pyridin-2-yl)benzamide], 12 nM; as for `O=C(Cn1ccc2cccnc21)N1CCN(c2ccccc2-c2cnc(N3CCCCC3)nc2)CC1` [1-{4-[2-(2-Piperidin-1-yl-pyrimidin-5-yl)-phenyl]-piperazin-1-yl}-2-pyrrolo[2,3-b]pyridin-1-yl-ethanone], 11 nM.
As for `O=C(Cn1ccc2ccncc21)N1CCN(c2ccc(F)cc2-c2cnc(N3CCC(O)CC3)nc2)CC1` [1-(4-{4-fluoro-2-[2-(4-hydroxypiperidin-1-yl)pyrimidin-5-yl]phenyl}piperazin-1-yl)-2-(1H-pyrrolo[2,3-c]pyridin-1-yl)ethanone], the figure is 10 nM; as for `C[C@H]1CN(c2ccc(F)cc2C(=O)Nc2nc3c(s2)CN(C)CC3)CCN1C(=O)CN1Cc2ccccc2C1=O` [5-fluoro-2-{(3S)-3-methyl-4-[(1-oxo-1,3-dihydro-2H-isoindol-2-yl)acetyl]piperazin-1-yl}-N-(5-methyl-4,5,6,7-tetrahydro[1,3]thiazolo[5,4-c]pyridin-2-yl)benzamide], 15 nM; as for `Cc1cc(C)n(CC(=O)N2CCN(c3ccccc3-c3cnc(N4CCCC(F)(F)C4)nc3)CC2)n1` [1-(4-{2-[2-(3,3-Difluoro-piperidin-1-yl)-pyrimidin-5-yl]-phenyl}-piperazin-1-yl)-2-(3,5-dimethyl-pyrazol-1-yl)-ethanone], 9 nM.
In the case of `Cc1cc(C)n(CC(=O)N2CCN(c3ccccc3-c3cnc(N4CCN(C)CC4)nc3)CC2)n1` [2-(3,5-Dimethyl-pyrazol-1-yl)-1-(4-{2-[2-(4-methyl-piperazin-1-yl)-pyrimidin-5-yl]-phenyl}-piperazin-1-yl)-ethanone], the IC50 worked out at 40 nM.
As for `Cc1cc(C(F)(F)F)nn1CC(=O)N1CCN(c2ccccc2-c2ccc(C#N)nc2)CC1` [5-(2-{4-[2-(5-Methyl-3-trifluoromethyl-pyrazol-1-yl)-acetyl]-piperazin-1-yl}-phenyl)-pyridine-2-carbonitrile], the figure is 71 nM; as for `COc1ncc(-c2ccccc2N2CCN(C(=O)Cn3ccc4ccncc43)CC2)cn1` [1-{4-[2-(2-Methoxy-pyrimidin-5-yl)-phenyl]-piperazin-1-yl}-2-pyrrolo[2,3-c]pyridin-1-yl-ethanone], 9 nM; as for `CSc1ncc(-c2cc(Cl)ccc2N2CCN(C(=O)Cn3ccc4cccnc43)CC2)cn1` [1-{4-[4-Chloro-2-(2-methylsulfanyl-pyrimidin-5-yl)-phenyl]-piperazin-1-yl}-2-pyrrolo[2,3-b]pyridin-1-yl-ethanone], 8 nM.
As to `Cc1cc(C)n(CC(=O)N2CCN(c3ccccc3-c3cnc(N4CCC(C(C)(C)O)CC4)nc3)CC2)n1` [2-(3,5-Dimethyl-pyrazol-1-yl)-1-[4-(2-{2-[4-(1-hydroxy-1-methyl-ethyl)-piperidin-1-yl]-pyrimidin-5-yl}-phenyl)-piperazin-1-yl]-ethanone], the IC50 came to 12 nM.
As for `CC1CN(c2ccc(C(F)(F)F)cc2-c2cnc(N3CCC(S(C)(=O)=O)CC3)nc2)CCN1C(=O)Cn1c(=O)[nH]c2ccccc21` (stereo not drawn) [1-(2-{2-methyl-4-[2-{2-[4-(methylsulfonyl)piperidin-1-yl]pyrimidin-5-yl}-4-(trifluoromethyl)phenyl]piperazin-1-yl}-2-oxoethyl)-1,3-dihydro-2H-benzimidazol-2-one], the figure is 8 nM.
As for `C[C@H]1CN(c2ccc(F)cc2C(=O)Nc2nc3c(s2)CN(C)CC3)CCN1C(=O)Cn1cnc2cccnc21` [5-fluoro-2-[(3S)-4-(3H-imidazo[4,5-b]pyridin-3-ylacetyl)-3-methylpiperazin-1-yl]-N-(5-methyl-4,5,6,7-tetrahydro[1,3]thiazolo[5,4-c]pyridin-2-yl)benzamide], the figure is 15 nM; as for `O=C(Cn1ccc2ccncc21)N1CCN(c2ccc(F)cc2-c2cnc(N3CCCC3)nc2)CC1` [1-(4-{4-fluoro-2-[2-(pyrrolidin-1-yl)pyrimidin-5-yl]phenyl}piperazin-1-yl)-2-(1H-pyrrolo[2,3-c]pyridin-1-yl)ethanone], 14 nM; as for `COc1cc(NC(=O)c2cc(F)ccc2N2CCN(C(=O)Cn3nc(C)cc3C)[C@@H](C)C2)ccn1` [2-{(3S)-4-[(3,5-dimethyl-1H-pyrazol-1-yl)acetyl]-3-methylpiperazin-1-yl}-5-fluoro-N-(2-methoxypyridin-4-yl)benzamide], 12 nM.
Next, `CN1CCN(c2ncc(-c3cc(F)ccc3N3CCN(C(=O)Cn4cnc5cccnc54)CC3)cn2)CC1` [1-(4-{4-fluoro-2-[2-(4-methylpiperazin-1-yl)pyrimidin-5-yl]phenyl}piperazin-1-yl)-2-(3H-imidazo[4,5-b]pyridin-3-yl)ethanone]: 43 nM.
For the compound `CC1CN(c2ccc(C(F)(F)F)cc2-c2cnc(N3CCC(O)CC3)nc2)CCN1C(=O)CN1Cc2ccccc2C1=O` (stereo not drawn) [2-[2-(4-{2-[2-(4-hydroxypiperidin-1-yl)pyrimidin-5-yl]-4-(trifluoromethyl)phenyl}-2-methylpiperazin-1-yl)-2-oxoethyl]-2,3-dihydro-1H-isoindol-1-one], the IC50 stood at 9 nM.
Take `Cc1cc(C)n(CC(=O)N2CCN(c3ccc(F)cc3-c3cnc(N4CCC(S(C)(=O)=O)CC4)nc3)CC2C)n1` (stereo not drawn) [2-(3,5-dimethyl-1H-pyrazol-1-yl)-1-[4-(4-fluoro-2-{2-[4-(methylsulfonyl)piperidin-1-yl]pyrimidin-5-yl}phenyl)-2-methylpiperazin-1-yl]ethanone]: the IC50 was 10 nM.
Next, `CSc1ncc(-c2ccccc2N2CCN(C(=O)Cn3nc(C)cc3C)CC2)cn1` [2-(3,5-Dimethyl-pyrazol-1-yl)-1-{4-[2-(2-methylsulfanyl-pyrimidin-5-yl)-phenyl]-piperazin-1-yl}-ethanone]: 10 nM; `O=C(Cn1ccc2cccnc21)N1CCC(c2ccccc2-c2cnc(N3CCOCC3)nc2)CC1` [1-{4-[2-(2-Morpholin-4-yl-pyrimidin-5-yl)-phenyl]-piperidin-1-yl}-2-pyrrolo[2,3-b]pyridin-1-yl-ethanone]: 11 nM.
